According to patent EP0738727B1, “1,4-BENZOXAZINE-2-ACETIC ACID COMPOUND, PROCESS FOR PRODUCING THE SAME, AND USE THEREOF” (Senju Pharmaceutical Co., Ltd., priority 1994, dated 1995):
Marks after values point to notes of the source that are not given here.

Key:
[1] = test system: sorbitol accumulation in tissues; test: Inhibitory action on sorbitol accumulation in tissues of rats with experimental (streptozotocin) diabetes; format: in vivo, Sprague-Dawley rats; conditions: measured 3 hours after final administration, control taken as 100%; for Sorbitol accumulation (%) nerve: sciatic nerve
Procedure: Sprague-Dawley rats (male, 6 weeks old, 5-6 per group) were fasted for 18 hours and injected with streptozotocin (SIGMA, 60 mg/kg) via the tail vein under etherization to prepare rats with diabetes.
The various compounds were orally administered at 4, 8 and 24 hours after the injection of streptozotocin, at 10 mg/kg or 30 mg/kg as a 0.5% carboxymethylcellulose suspension. During the administrations, the rats were raised under free access to feed and water, and the sorbitol content of the tissues (erythrocytes, sciatic nerve, lens) was determined 3 hours after the final administration, according to the enzyme method of H.Y. Bergmeyer et al. [Methods of Enzymatic Analysis, vol. 3, 1323-1330 (1974)] with the use of SDH (sorbitol dehydrogenase) and NAD (β-nicotinamide adenine dinucleotide). The results (sorbitol accumulation) are expressed in percent (%) relative to the value of a control group administered with 0.5% carboxymethylcellulose solution (solvent) instead of the drug, which was taken as 100%.

[2] = target: T1, aldose reductase (Sus scrofa, UniProt P80276); test: Aldose reductase inhibitory action (method of S. Hayman et al., absorbance change at 340 nm); format: biochemical; conditions: swine lens enzyme, 3 mM dl-glyceraldehyde, 0.1 mM NADPH, pH 6.2, 25°C
T1 construct: swine lenses freeze-stored at -80°C were homogenized with distilled water and centrifuged at 10,000 G for 15 minutes; from tissue; host or cells: swine lens
Procedure: An aldose reductase enzyme standard product was prepared from swine lens according to the method of S. Hayman et al. [Journal of Biological Chemistry, 240, 877-882 (1965)]. That is, swine lenses freeze-stored at -80°C were homogenized with distilled water and centrifuged at 10,000 G for 15 minutes. The supernatant was prepared into a 40% ammonium sulfate solution and subjected to centrifugation at 10,000 G for 10 minutes. The supernatant obtained was dialyzed overnight against a 0.05 M sodium chloride solution to give a dialyzed solution, which was used as an enzyme standard product.
The activity of aldose reductase was determined by the above-mentioned method of S. Hayman et al. That is, the above-mentioned enzyme solution (25 µl) and a drug solution (25 µl) dissolved in 1% DMSO at various concentrations were added to a 40 mM phosphate buffer (200 µl, pH 6.2) containing, at final concentrations, 0.4 M lithium sulfate, 0.1 mM NADPH (reduced type nicotinamide adenine dinucleotide phosphate) and 3 mM dl-glyceraldehyde as a substrate. The mixture was allowed to react at 25°C for 2 minutes and the changes in absorbance at 340 nm were determined with COBAS FARA II (manufactured by Roche). The changes in absorbance when 1% DMSO was added instead of the drug solution was taken as 100%, based on which 50% inhibition concentration (IC50) was calculated and shown in Table 1. […] The test drug number indicates the example number to be mentioned later. IC50 (M) means the concentration of the drug at which the aldose reductase activity is inhibited by 50% Table 1

[3] = test system: ICR mice; test: Acute toxicity after a single oral dose in mice; format: in vivo; conditions: 300 mg/kg orally, male ICR mice, observation for 14 days
Procedure: Normal ICR mice (male, 7 weeks old, 5 per group) were fasted for 18 hours and the compound (300 mg/kg) of Example 33 was orally administered as a 0.5% carboxymethylcellulose suspension. To the control group, a 0.5% carboxymethylcellulose solution alone was orally administered, and observation was continued for 14 days thereafter, during which period the mice were allowed to take feed and water freely.

[4] = 10 mg/kg orally at 4, 8 and 24 hours after streptozotocin
[5] = 30 mg/kg orally at 4, 8 and 24 hours after streptozotocin

| IC50 [2] | Structure (SMILES) | Sorbitol accumulation (%) erythrocytes [1, 4] | Sorbitol accumulation (%) lens [1, 4] | Sorbitol accumulation (%) nerve [1, 4] | further results |
| --- | --- | --- | --- | --- | --- |
| – | O=C(O)CC1Oc2cc(F)ccc2N(Cc2nc3c(F)c(F)ccc3s2)C1=O (stereo not drawn) [Example 45, 2-[7-fluoro-4-(4,5-difluorobenzothiazol-2-yl)methyl-3,4-dihydro-3-oxo-2H-1,4-benzoxazin-2-yl]acetic acid] | 32.4** % | 71.8* % | 56.8** % | – |
| 9.2 nM | Cc1ccc2c(c1)N(Cc1nc3c(F)c(F)ccc3s1)C(=O)C(CC(=O)O)O2 (stereo not drawn) [Example 36, 2-[4-(4,5-difluorobenzothiazol-2-yl)methyl-6-methyl-3,4-dihydro-3-oxo-2H-1,4-benzoxazin-2-yl]acetic acid] | 17.3** % | 60.7* % | 23.5** % | – |
| 9.6 nM | O=C(O)CC1Oc2ccc(F)cc2N(Cc2nc3c(F)c(F)ccc3s2)C1=O (stereo not drawn) [Example 26, 2-[6-fluoro-4-(4,5-difluorobenzothiazol-2-yl)methyl-3,4-dihydro-3-oxo-2H-1,4-benzoxazin-2-yl]acetic acid] | – | – | – | – |
| – | O=C(O)CC1Oc2cc(F)ccc2N(Cc2nc3c(F)c(F)cc(F)c3s2)C1=O (stereo not drawn) [Example 44, 2-[7-fluoro-4-(4,5,7-trifluorobenzothiazol-2-yl)methyl-3,4-dihydro-3-oxo-2H-1,4-benzoxazin-2-yl]acetic acid] | 25.9** % | 52.0** % | 4.7 ** % | – |
| – | O=C(O)CC1Oc2ccc(Cl)cc2N(Cc2nc3c(F)c(F)cc(F)c3s2)C1=O (stereo not drawn) [Example 38, 2-[6-chloro-4-(4,5,7-trifluorobenzothiazol-2-yl)methyl-3,4-dihydro-3-oxo-2H-1,4-benzoxazin-2-yl]acetic acid] | 24.6** % | 44.1** % | 0.0** % | – |
| – | O=C(O)CC1Oc2ccc(F)cc2N(Cc2nc3c(Cl)c(Cl)ccc3s2)C1=O (stereo not drawn) [Example 28, 2-[4-(4,5-dichlorobenzothiazol-2-yl)methyl-6-fluoro-3,4-dihydro-3-oxo-2H-1,4-benzoxazin-2-yl]acetic acid] | 16.3** % | 89.3% | 56.0** % | – |
| 9.1 nM | Cc1ccc2c(c1)N(Cc1nc3c(F)c(F)cc(F)c3s1)C(=O)C(CC(=O)O)O2 (stereo not drawn) [Example 35, 2-[4-(4,5,7-trifluorobenzothiazol-2-yl)methyl-6-methyl-3,4-dihydro-3-oxo-2H-1,4-benzoxazin-2-yl] acetic acid] | – | – | – | – |
| 9.9 nM | O=C(O)CC1Oc2ccc(F)cc2N(Cc2nc3cc(F)cc(F)c3s2)C1=O (stereo not drawn) [Example 27, 2-[6-fluoro-4-(5,7-difluorobenzothiazol-2-yl)methyl-3,4-dihydro-3-oxo-2H-1,4-benzoxazin-2-yl]acetic acid] | – | – | – | – |
| – | Cc1ccc2c(c1)OC(CC(=O)O)C(=O)N2Cc1nc2cc(F)cc(F)c2s1 (stereo not drawn) [Example 43, 2-[4-(5,7-difluorobenzothiazol-2-yl)methyl-7-methyl-3,4-dihydro-3-oxo-2H-1,4-benzoxazin-2-yl]acetic acid] | 34.9** % | 100.9% | 60.6** % | – |
| – | O=C(O)CC1Oc2ccccc2N(Cc2nc3cc(F)cc(F)c3s2)C1=O (stereo not drawn) [Example 32, 2-[4-(5,7-difluorobenzothiazol-2-yl)methyl-3,4-dihydro-3-oxo-2H-1,4-benzoxazin-2-yl]acetic acid] | 27.2** % | 39.1** % | 11.4** % | – |
| 8.6 nM | O=C(O)CC1Oc2ccccc2N(Cc2nc3cc(Cl)ccc3s2)C1=O (stereo not drawn) [Example 25, 2-[4-(5-chlorobenzothiazol-2-yl)methyl-3,4-dihydro-3-oxo-2H-1,4-benzoxazin-2-yl]acetic acid] | – | – | – | – |
| 9.9 nM | O=C(O)CC1Oc2ccccc2N(Cc2nc3c(Cl)c(Cl)ccc3s2)C1=O (stereo not drawn) [Example 34, 2-[4-(4,5-dichlorobenzothiazol-2-yl)methyl-3,4-dihydro-3-oxo-2H-1,4-benzoxazin-2-yl]acetic acid] | – | – | – | – |
| – | O=C(O)CC1Oc2ccccc2N(Cc2nc3c(F)c(F)cc(F)c3s2)C1=O (stereo not drawn) [Example 30, 2-[4-(4,5,7-trifluorobenzothiazol-2-yl)methyl-3,4-dihydro-3-oxo-2H-1,4-benzoxazin-2-yl]acetic acid] | 22.2** % | 45.2** % | 1.0** % | – |
| – | CC(C)c1cccc2c1OC(C(C)C)C(=S)N2CC(=O)O (stereo not drawn) [Compound A, 3,4-dihydro-2,8-diisopropyl-3-thioxo-2H-1,4-benzoxazine-4-acetic acid, reference compound] | – | – | – | Sorbitol accumulation (%) erythrocytes [1, 5]: 53.7* %; Sorbitol accumulation (%) lens [1, 5]: 87.3%; Sorbitol accumulation (%) nerve [1, 5]: 54.9** % |
| 9.9 nM | O=C(O)CC1Oc2ccc(Cl)cc2N(Cc2nc3c(F)c(F)ccc3s2)C1=O (stereo not drawn) [Example 39, 2-[6-chloro-4-(4,5-difluorobenzothiazol-2-yl)methyl-3,4-dihydro-3-oxo-2H-1,4-benzoxazin-2-yl]acetic acid] | – | – | – | – |
| – | O=C(O)CC1Oc2ccccc2N(Cc2nc3ccc(F)c(F)c3s2)C1=O (stereo not drawn) [Example 33, 2-[4-(6,7-difluorobenzothiazol-2-yl)methyl-3,4-dihydro-3-oxo-2H-1,4-benzoxazin-2-yl]acetic acid] | – | – | – | death [3]: no case of death; weights ([3]; compared with control group): showed transition in the same manner as in the control group |
